From ChEMBL document CHEMBL6071211, “Invention of VH-937, a Potent HIV-1 Maturation Inhibitor with the Potential for Infrequent Oral Dosing in Humans” (ACS Med Chem Lett, 2024)
In brackets after ≈: the same amount, converted by molar mass.

Key:
[1] = Aqueous solubility of compound in fed state simulated intestinal fluid (FeSSIF); type: physicochemical; details: simulated gi fluid
[2] = AUC (infinity) in mouse at 5 mg/kg, po; type: ADME, organism-based; details: in vivo
[3] = system: Human immunodeficiency virus 1; assay: In vitro antiviral activity against fully replicating HIV1 harboring Gag […]/V370A mutant assessed as maximum percent inhibition by multicycle assay relative to control; type: functional
Cytochrome P450 2C9 = Cytochrome P450 2C9 (Homo sapiens, UniProt P11712); assay: Inhibition of CYP2C9 (unknown origin); type: ADME
[4] = Lipophilicity, logD of compound; type: physicochemical; details: octanol/water
[5] = Metabolic stability in rat liver microsomes assessed as half life; type: ADME, Microsome
[6] = system: Human immunodeficiency virus 1; assay: In vitro antiviral activity against fully replicating HIV1 harboring Gag A364V mutant by multicycle assay; type: functional, organism-based
[7] = system: Human immunodeficiency virus 1; assay: In vitro antiviral activity against fully replicating wild type HIV1 NL4-3; type: functional, organism-based; details: Human immunodeficiency virus 1, NL4-3
[8] = AUC (infinity) in rat at 1 mg/kg, iv; type: ADME, organism-based; details: in vivo
[9] = Volume of distribution at steady state in dog at 2 mg/kg, iv; type: ADME, organism-based, Canis lupus familiaris; details: in vivo, read-out: Vdss
Cytochrome P450 2B6 = biological target: T1, Cytochrome P450 2B6 (Homo sapiens, UniProt P20813); assay: Inhibition of CYP2B6 (unknown origin); type: ADME
T1 sequence (P20813 whole entry): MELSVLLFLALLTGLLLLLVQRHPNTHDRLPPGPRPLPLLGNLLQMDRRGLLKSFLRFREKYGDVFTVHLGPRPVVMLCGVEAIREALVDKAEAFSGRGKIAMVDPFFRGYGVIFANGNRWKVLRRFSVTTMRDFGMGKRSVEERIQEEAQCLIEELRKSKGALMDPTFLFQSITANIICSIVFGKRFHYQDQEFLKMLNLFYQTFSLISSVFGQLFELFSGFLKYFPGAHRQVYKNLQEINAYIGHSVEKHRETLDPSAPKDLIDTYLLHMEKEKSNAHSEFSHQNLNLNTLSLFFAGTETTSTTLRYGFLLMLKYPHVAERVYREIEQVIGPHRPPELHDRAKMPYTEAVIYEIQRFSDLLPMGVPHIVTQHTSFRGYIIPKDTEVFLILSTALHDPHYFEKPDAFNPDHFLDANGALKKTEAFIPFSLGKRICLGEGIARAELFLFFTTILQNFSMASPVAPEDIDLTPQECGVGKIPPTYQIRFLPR

Cytochrome P450 1A2 = biological target: T2, Cytochrome P450 1A2 (Homo sapiens, UniProt P05177); assay: Inhibition of CYP1A2 (unknown origin); type: ADME
T2 sequence (P05177 whole entry): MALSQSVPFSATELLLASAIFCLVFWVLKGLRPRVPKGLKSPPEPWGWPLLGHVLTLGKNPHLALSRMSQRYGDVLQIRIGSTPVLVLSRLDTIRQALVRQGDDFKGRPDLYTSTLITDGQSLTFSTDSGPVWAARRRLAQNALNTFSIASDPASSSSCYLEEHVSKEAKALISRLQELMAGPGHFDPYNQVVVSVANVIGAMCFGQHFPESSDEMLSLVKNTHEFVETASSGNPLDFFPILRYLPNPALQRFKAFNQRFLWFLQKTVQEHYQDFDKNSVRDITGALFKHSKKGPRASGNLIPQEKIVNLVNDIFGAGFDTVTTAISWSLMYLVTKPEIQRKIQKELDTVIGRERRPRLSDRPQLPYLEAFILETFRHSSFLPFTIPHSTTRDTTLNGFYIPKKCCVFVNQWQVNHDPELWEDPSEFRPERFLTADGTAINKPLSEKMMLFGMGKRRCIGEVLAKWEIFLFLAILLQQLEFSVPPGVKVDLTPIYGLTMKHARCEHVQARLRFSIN

[10] = system: Human immunodeficiency virus 1; assay: In vitro antiviral activity against fully replicating pseudotype HIV1 harboring Gag A364V mutant by single cycle assay; type: functional, organism-based
[11] = system: Human immunodeficiency virus 1; assay: In vitro antiviral activity against fully replicating pseudotype HIV1 harboring Gag V370A mutant assessed as maximum percent inhibition by single cycle assay relative to control; type: functional
[12] = Clearance in rat at 1 mg/kg, iv; type: ADME, organism-based; details: in vivo
[13] = Elimination half life in rat at 1 mg/kg, iv; type: ADME, organism-based; details: in vivo, read-out: beta t1/2 (converted)
[14] = system: Human immunodeficiency virus 1; assay: In vitro antiviral activity against fully replicating pseudotype HIV1 harboring Gag V3621/V370A mutant assessed as maximum percent inhibition by single cycle assay relative to control; type: functional
[15] = AUC (infinity) in rat at 5 mg/kg, po; type: ADME, organism-based; details: in vivo
[16] = system: Human immunodeficiency virus 1; assay: In vitro antiviral activity against fully replicating wild type HIV1 NLRepRluc-P373S assessed as maximum percent inhibition by multicycle assay relative to control; type: functional
[17] = system: Human immunodeficiency virus 1; assay: Ratio of EC50 for antiviral activity against fully replicating pseudotype HIV1 harboring Gag deltaV370 mutant by single cycle assay to EC50 for antiviral activity against fully replicating wild type pseudotype HIV1 NLRepRluc-P373S by single cycle assay; type: functional
[18] = system: Human immunodeficiency virus 1; assay: In vitro antiviral activity against fully replicating HIV1 NL4-3 harboring Gag T332S/V362I/prR41G mutant; type: functional, organism-based; details: Human immunodeficiency virus 1, NL4-3
[19] = system: Human immunodeficiency virus 1; assay: Ratio of EC50 for antiviral activity against fully replicating pseudotype HIV1 harboring to Gag T332S/[…]/prR41G mutant by single cycle assay to EC50 for antiviral activity against fully replicating wild type pseudotype HIV1 NLRepRluc-P373S by single cycle assay; type: functional
[20] = Volume of distribution at steady state in Cynomolgus monkey at 2 mg/kg, iv; type: ADME, organism-based, Macaca fascicularis; details: in vivo, read-out: Vdss
[21] = system: Human immunodeficiency virus 1; assay: In vitro antiviral activity against fully replicating HIV1 harboring Gag V370A/deltaV371 mutant assessed as maximum percent inhibition by multicycle assay relative to control; type: functional
[22] = AUC (infinity) in dog at 5 mg/kg, po; type: ADME, organism-based, Canis lupus familiaris; details: in vivo
[23] = Genotoxicity in Salmonella typhimurium by Ames test; type: toxicity; details: salmonella enterica subsp. enterica serovar typhimurium
[24] = system: Human immunodeficiency virus 1; assay: Ratio of EC50 for antiviral activity against fully replicating HIV1 harboring Gag V370A/deltaV371 by multicycle assay to EC50 for antiviral activity against fully replicating wild type HIV1 NLRepRluc-P373S by multicycle assay; type: functional
[25] = Elimination half life in Cynomolgus monkey at 5 mg/kg, po; type: ADME, organism-based, Macaca fascicularis; details: in vivo, read-out: beta t1/2 (converted)
Cytochrome P450 2C19 = Cytochrome P450 2C19 (Homo sapiens, UniProt P33261); assay: Inhibition of CYP2C19 (unknown origin); type: ADME
[26] = system: Human immunodeficiency virus 1; assay: In vitro antiviral activity against fully replicating HIV1 harboring Gag […]/V370A mutant by multicycle assay; type: functional, organism-based
[27] = system: Human immunodeficiency virus 1; assay: In vitro antiviral activity against fully replicating pseudotype HIV1 harboring Gag T332S/[…]/prR41G mutant assessed as maximum percent inhibition by single cycle assay relative to control; type: functional
[28] = Clearance in Cynomolgus monkey at 2 mg/kg, iv; type: ADME, organism-based, Macaca fascicularis; details: in vivo
[29] = system: Human immunodeficiency virus 1; assay: In vitro antiviral activity against fully replicating HIV1 harboring Gag V370A/deltaV371 mutant by multicycle assay; type: functional, organism-based
[30] = Clearance in dog at 2 mg/kg, iv; type: ADME, organism-based, Canis lupus familiaris; details: in vivo
[31] = system: Human immunodeficiency virus 1; assay: Ratio of EC50 for antiviral activity against fully replicating HIV1 harboring Gag V3621/V370A mutant by multicycle assay to EC50 for antiviral activity against fully replicating wild type HIV1 NLRepRluc-P373S by multicycle assay; type: functional

Chain of Cytochrome P450 2C19 (P33261 whole entry): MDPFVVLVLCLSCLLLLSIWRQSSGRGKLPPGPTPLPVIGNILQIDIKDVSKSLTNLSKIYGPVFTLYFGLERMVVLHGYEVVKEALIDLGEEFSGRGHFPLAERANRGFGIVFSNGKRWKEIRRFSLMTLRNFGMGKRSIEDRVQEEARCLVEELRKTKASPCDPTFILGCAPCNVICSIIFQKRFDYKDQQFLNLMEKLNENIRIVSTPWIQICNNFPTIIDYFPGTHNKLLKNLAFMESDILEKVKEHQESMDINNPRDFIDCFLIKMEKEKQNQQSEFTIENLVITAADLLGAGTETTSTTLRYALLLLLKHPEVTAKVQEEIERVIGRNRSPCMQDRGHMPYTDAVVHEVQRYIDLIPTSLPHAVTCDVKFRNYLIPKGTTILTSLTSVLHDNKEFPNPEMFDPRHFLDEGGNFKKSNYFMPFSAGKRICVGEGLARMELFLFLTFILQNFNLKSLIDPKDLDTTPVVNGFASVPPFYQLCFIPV
Chain of Cytochrome P450 2C9 (P11712 whole entry): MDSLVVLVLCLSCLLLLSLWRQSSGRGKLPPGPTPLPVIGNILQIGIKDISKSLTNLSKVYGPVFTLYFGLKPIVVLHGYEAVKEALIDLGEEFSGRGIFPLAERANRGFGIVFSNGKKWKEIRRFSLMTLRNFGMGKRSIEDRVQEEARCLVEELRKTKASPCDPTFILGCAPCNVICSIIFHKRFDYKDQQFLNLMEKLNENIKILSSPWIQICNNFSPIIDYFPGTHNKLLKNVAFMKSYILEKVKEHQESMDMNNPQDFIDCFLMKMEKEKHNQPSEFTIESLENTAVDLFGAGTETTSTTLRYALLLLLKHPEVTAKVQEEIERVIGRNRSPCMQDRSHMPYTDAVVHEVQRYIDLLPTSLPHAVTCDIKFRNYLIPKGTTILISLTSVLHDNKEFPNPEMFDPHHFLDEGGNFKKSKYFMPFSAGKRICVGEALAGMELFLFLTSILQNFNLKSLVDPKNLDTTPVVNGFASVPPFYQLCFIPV

## C=C(C)[C@@H]1CC[C@]2(NCCN3CCS(=O)(=O)CC3)CC[C@]3(C)[C@H](CC[C@@H]4[C@@]5(C)CC=C(C6=CC[C@](COc7ncccc7C#N)(C(=O)O)CC6)C(C)(C)[C@@H]5CC[C@]43C)[C@@H]12
[1]
  solubility: 363 µg/mL (≈ 439 µM)
[2]
  AUC(0-inf): 73.8 µM·h
[3]
  Imax: 94%
Cytochrome P450 2C9
  IC50: > 4400 nM
[4]
  logD: 4.74
[5]
  half-life: > 2 h
[6]
  EC50: 5 nM
[7]
  EC50: 1.8 nM
[8]
  AUC(0-inf): 16.1 µM·h
[9]
  Vd: 0.43 L/kg
Cytochrome P450 2B6
  IC50: > 4400 nM
Cytochrome P450 1A2
  IC50: > 4400 nM
[10]
  EC50: 32 nM
[11]
  Imax: 99%
[12]
  clearance: 1.23 mL/min/kg
[13]
  half-life: 8.6 h
[14]
  Imax: 98%
[15]
  AUC(0-inf): 36.3 µM·h
[16]
  Imax: 99.1%
[17]
  Ratio EC50: 2.4
[18]
  EC50: 8 nM
[19]
  Ratio EC50: 4.8
[20]
  Vd: 0.3 L/kg
[21]
  Imax: 92.2%
[22]
  AUC(0-inf): 120 µM·h
[23]
  Activity: Non-Toxic
[24]
  Ratio EC50: 2.5
[25]
  half-life: 11.4 h
Cytochrome P450 2C19
  IC50: > 4400 nM
[26]
  EC50: 2 nM
[27]
  Imax: 96%
[28]
  clearance: 0.32 mL/min/kg
[29]
  EC50: 5 nM
[30]
  clearance: 0.21 mL/min/kg
[31]
  Ratio EC50: 1
